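Compound exposure: 48 hours, 5 concentrations, 96-well plates. Here, GI50 denotes the concentration required for 50% inhibition of growth. TGI denotes the concentration required for complete inhibition of growth.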
Key:
Assay in all cases: growth of human tumour cells (NCI), 48 h
[1] = test system: SF-295 CNS
[2] = test system: OVCAR-8 ovarian
[3] = test system: KM12 colon
[4] = test system: MDA-MB-435
[5] = test system: NCI/ADR-RES ovarian
[6] = test system: UACC-62 melanoma
[7] = test system: MOLT-4 leukemia
[8] = test system: UACC-257 melanoma
[9] = test system: HCC-2998 colon
[10] = test system: SK-MEL-5 melanoma
[11] = test system: SN12C renal
[12] = test system: UO-31 renal
[13] = test system: EKVX NSCLC
[14] = test system: HT29 colon
[15] = test system: CAKI-1 renal
[16] = test system: HS 578T breast
[17] = test system: U251 CNS
[18] = test system: SW-620 colon
[19] = test system: M14 melanoma
[20] = test system: MALME-3M melanoma
[21] = test system: SK-MEL-28 melanoma
[22] = test system: HCT-15 colon
[23] = test system: OVCAR-3 ovarian
[24] = test system: SR leukemia
[25] = test system: IGROV1 ovarian
[26] = test system: SK-MEL-2 melanoma
[27] = test system: BT-549 breast
[28] = test system: HCT-116 colon
[29] = test system: K-562 leukemia
[30] = test system: ACHN renal
[31] = test system: OVCAR-5 ovarian
[32] = test system: CCRF-CEM leukemia
[33] = test system: NCI-H522 lung
[34] = test system: SNB-75 CNS
[35] = test system: HOP-92 NSCLC
[36] = test system: DU-145 prostate
[37] = test system: RPMI-8226 leukemia
[38] = test system: A498 renal
[39] = test system: PC-3 prostate
[40] = test system: NCI-H460 lung
[41] = test system: T-47D breast
[42] = test system: COLO 205 colon
[43] = test system: NCI-H226 lung
[44] = test system: LOX IMVI melanoma
[45] = test system: SF-268 CNS
[46] = test system: SNB-19 CNS
[47] = test system: OVCAR-4 ovarian
[48] = test system: HOP-62 NSCLC
[49] = test system: NCI-H23 lung
[50] = test system: 786-0 renal
[51] = test system: SK-OV-3 ovarian
[52] = test system: A549 NSCLC
[53] = test system: MCF7 breast
[54] = test system: TK-10 renal
[55] = test system: MDA-MB-231 breast
[56] = test system: HL-60(TB) leukemia
[57] = test system: SF-539 CNS

CCN(CC)CCOc1ccc(C(=C(c2ccccc2)C2CCCC2)c2ccc(OCCN(CC)CC)cc2)cc1
GI50 [1]: 5.77 µM | TGI [1]: > 16.3 µM | GI50 [2]: 6.88 µM | TGI [2]: > 16.3 µM | GI50 [3]: 2.81 µM | TGI [3]: 5.28 µM | GI50 [4]: 3.19 µM | TGI [4]: 7.45 µM | GI50 [5]: > 16.3 µM | TGI [5]: > 16.3 µM | GI50 [6]: 3.92 µM | TGI [6]: 11.1 µM | GI50 [7]: 4.47 µM | TGI [7]: 13.3 µM | GI50 [8]: 5.09 µM | TGI [8]: > 16.3 µM | GI50 [9]: 4.62 µM | TGI [9]: > 16.3 µM | GI50 [10]: 5.31 µM | TGI [10]: > 16.3 µM | GI50 [11]: 5.28 µM | TGI [11]: > 16.3 µM | GI50 [12]: > 16.3 µM | TGI [12]: > 16.3 µM | GI50 [13]: 7.53 µM | TGI [13]: > 16.3 µM | GI50 [14]: 3.82 µM | TGI [14]: 10.4 µM | GI50 [15]: > 16.3 µM | TGI [15]: > 16.3 µM | GI50 [16]: 3.64 µM | TGI [16]: 12.8 µM | GI50 [17]: 3.85 µM | TGI [17]: 12.5 µM | GI50 [18]: 5.05 µM | TGI [18]: > 16.3 µM | GI50 [19]: 7.22 µM | TGI [19]: > 16.3 µM | GI50 [20]: 3.57 µM | TGI [20]: 10.3 µM | GI50 [21]: 6.5 µM | TGI [21]: > 16.3 µM | GI50 [22]: > 16.3 µM | TGI [22]: > 16.3 µM | GI50 [23]: 3.07 µM | TGI [23]: 6.54 µM | GI50 [24]: 3.29 µM | TGI [24]: 7.88 µM | GI50 [25]: 3.49 µM | TGI [25]: 7.66 µM | GI50 [26]: 5.49 µM | TGI [26]: > 16.3 µM | GI50 [27]: 2.27 µM | TGI [27]: 6.04 µM | GI50 [28]: 4.89 µM | TGI [28]: > 16.3 µM | GI50 [29]: 5.57 µM | TGI [29]: > 16.3 µM | GI50 [30]: > 16.3 µM | TGI [30]: > 16.3 µM | GI50 [31]: 6.13 µM | TGI [31]: > 16.3 µM | GI50 [32]: 4.52 µM | TGI [32]: > 16.3 µM | GI50 [33]: 6.3 µM | TGI [33]: > 16.3 µM | GI50 [34]: 4.58 µM | TGI [34]: > 16.3 µM | GI50 [35]: 1.33 µM | TGI [35]: 6.89 µM | GI50 [36]: 7.97 µM | TGI [36]: > 16.3 µM | GI50 [37]: 2.77 µM | TGI [37]: 10.7 µM | GI50 [38]: > 16.3 µM | TGI [38]: > 16.3 µM | GI50 [39]: 6.16 µM | TGI [39]: > 16.3 µM | GI50 [40]: 4.84 µM | TGI [40]: > 16.3 µM | GI50 [41]: 5.6 µM | TGI [41]: > 16.3 µM | GI50 [42]: 3.2 µM | TGI [42]: 7.63 µM | GI50 [43]: 6.58 µM | TGI [43]: > 16.3 µM | GI50 [44]: 4.45 µM | TGI [44]: 14.7 µM | GI50 [45]: 5.35 µM | TGI [45]: > 16.3 µM | GI50 [46]: 4.96 µM | TGI [46]: > 16.3 µM | GI50 [47]: 5.35 µM | TGI [47]: > 16.3 µM | GI50 [48]: 9.41 µM | TGI [48]: > 16.3 µM | GI50 [49]: 5.64 µM | TGI [49]: > 16.3 µM | GI50 [50]: 12.2 µM | TGI [50]: > 16.3 µM | GI50 [51]: 7.95 µM | TGI [51]: > 16.3 µM | GI50 [52]: 6.46 µM | TGI [52]: > 16.3 µM | GI50 [53]: 2.53 µM | TGI [53]: 5.01 µM | GI50 [54]: > 16.3 µM | TGI [54]: > 16.3 µM | GI50 [55]: 4.57 µM | TGI [55]: 15.6 µM | GI50 [56]: 3.13 µM | TGI [56]: 7.14 µM | GI50 [57]: 5.51 µM | TGI [57]: > 16.3 µM

From PubChem BioAssay (NCI)
